In article PMC9658812, “New Pyrimidine-5-Carbonitriles as COX-2 Inhibitors: Design, Synthesis, Anticancer Screening, Molecular Docking, and In Silico ADME Profile Studies” (Molecules, 2022):

Columns and labels:
[1] = target: T1, human COX-2 (Homo sapiens, UniProt P35354); test: COX-2 inhibition assay (fluorometric inhibitor screening kit); assay type: biochemical; details: for inhibition at 10 µM: 10^−5 M; for inhibition at 10 µM / inhibition at 1 µM / inhibition at 0.1 µM / inhibition at 0.01 µM / inhibition at 0.001 µM: mean of three experiments ± SD, read-out: COX-2 Inhibition (%); for inhibition at 1 µM: 10^−6 M; for inhibition at 0.1 µM: 10^−7 M; for inhibition at 0.01 µM: 10^−8 M; for inhibition at 0.001 µM: 10^−9 M; for IC50: human COX-2 assay kit, three experiments; for fold more potent than Nimesulide (COX-2 IC50): versus Nimesulide
T1 construct: purchased Biovision, Zurich, Switzerland
T1 sequence (P35354 18-604): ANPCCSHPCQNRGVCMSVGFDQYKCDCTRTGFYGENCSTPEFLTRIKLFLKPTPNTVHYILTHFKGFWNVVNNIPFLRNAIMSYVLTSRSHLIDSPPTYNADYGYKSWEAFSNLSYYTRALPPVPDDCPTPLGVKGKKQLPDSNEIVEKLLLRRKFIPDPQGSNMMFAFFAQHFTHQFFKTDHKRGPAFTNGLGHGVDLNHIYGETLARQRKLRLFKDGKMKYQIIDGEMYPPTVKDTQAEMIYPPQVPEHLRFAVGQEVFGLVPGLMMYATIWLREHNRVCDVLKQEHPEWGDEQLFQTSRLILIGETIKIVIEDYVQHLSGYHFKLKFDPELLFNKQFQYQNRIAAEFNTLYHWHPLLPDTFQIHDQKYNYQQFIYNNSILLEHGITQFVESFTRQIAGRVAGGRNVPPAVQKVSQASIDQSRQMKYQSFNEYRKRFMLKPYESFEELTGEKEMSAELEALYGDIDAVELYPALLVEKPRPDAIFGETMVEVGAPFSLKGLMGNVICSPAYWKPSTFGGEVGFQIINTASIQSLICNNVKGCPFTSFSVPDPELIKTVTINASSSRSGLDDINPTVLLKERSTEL
Description: Fluorometric inhibitor screening kits (Biovision, Zurich, Switzerland) were utilized for the COX-2 enzyme inhibition test, as described before.

[2] = tested on: A498 cells (renal carcinoma); test: MTT cytotoxicity assay, A498; details: for IC50: Homo sapiens, A498, 24 h, read-out: Cytotoxicity IC50 A498; for fold more cytotoxic than doxorubicin, A498: versus doxorubicin
Description: (§1) Breast carcinoma (MCF-7), renal cell carcinoma (A498), lung cancer (A549), and liver carcinoma (HepG2) cell lines, in addition to non-tumorigenic WI-38 cell lines, were collected from the American Type Culture Collection. The cells were grown in DMEM (Invitrogen/Life Technologies) containing 1% penicillin-streptomycin, 10 µg/mL of insulin (Sigma), and 10% FBS (Hyclone).
(§2) To check the possible cellular toxicity, synthesized compounds were subjected to the MTT [3-(4,5-dimethylthiazol-2-yl)-2,5-diphenyltetrazolium bromide] assay against the MCF7, A549, A498, and HepG2 cell lines. […] Later, 2.0–3.0 mL of Trypsin EDTA solution was added into the flask containing the cell layers for 5–15 min to disperse the cell layer, which was observed through an inverted microscope. By gently pipetting, aspirated cells were added into a 6.0–8.0 mL growth medium. […] An amount of 20 μL of a 5-mg/mL MTT solution was applied after a 24-h drug-treatment period, and it was incubated for 4 h. To dissolve the produced purple formazan, each well received 100 μL of dimethyl sulfoxide (DMSO).

[3] = tested on: MCF7 cells (breast carcinoma); test: MTT cytotoxicity assay, MCF7; details: for IC50: Homo sapiens, MCF7, 24 h, read-out: Cytotoxicity IC50 MCF7; for fold more cytotoxic than doxorubicin, MCF7: versus doxorubicin
Description: as §1, §2

[4] = tested on: A549 cells (non-small-cell lung cancer); test: MTT cytotoxicity assay, A549; details: for IC50: Homo sapiens, A549, 24 h, read-out: Cytotoxicity IC50 A549
Description: as §1, §2

[5] = tested on: HepG2 cells (liver carcinoma); test: MTT cytotoxicity assay, HepG2; details: for IC50: Homo sapiens, HepG2, 24 h, read-out: Cytotoxicity IC50 HepG2
Description: as §1, §2

[6] = tested on: WI-38 cells (normal cell derived from lung tissue); test: Cytotoxicity on non-tumorigenic WI-38 cell line; details: Homo sapiens, WI-38, read-out: WI-38 IC50
Description: as §1, §2

inhibition at 10 µM [1] [%]	inhibition at 1 µM [1] [%]	inhibition at 0.1 µM [1] [%]	inhibition at 0.01 µM [1] [%]	inhibition at 0.001 µM [1] [%]	IC50 [1] [nM]	melting point [°C]	fold more potent than Nimesulide (COX-2 IC50) [1]	Structure (SMILES)	IC50 [2] [nM]	fold more cytotoxic than doxorubicin, A498 [2]	IC50 [3] [nM]	fold more cytotoxic than doxorubicin, MCF7 [3]	IC50 [4] [nM]	IC50 [5] [nM]	IC50 [6] [µM]	fold more cytotoxic than doxorubicin, A549 ([4]; versus doxorubicin) [fold]	fold more cytotoxic than doxorubicin, HepG2 ([5]; versus doxorubicin) [fold]
71.2 ± 1.13	62.5 ± 0.95	41.1 ± 0.55	32 ± 0.61	22.3 ± 0.45	230 ± 10	–	–	COc1ccc(-c2nc(NCc3nc4ccccc4[nH]3)nc(OC)c2C#N)cc1 [Compound 3a, 2-((1H-Benzo[d]imidazol-2-yl)methylamino)-4-methoxy-6-(4-methoxyphenyl)pyrimidine-5-carbonitrile]	–	–	–	–	–	–	–	–	–
40.3 ± 0.62	33.3 ± 0.77	22.4 ± 0.59	77.01 ± 0.03	61.3 ± 0.96	200 ± 10	> 300	approximately 4.7 fold	COc1ccc(-c2nc(NCc3nc4ccccc4o3)nc(OC)c2C#N)cc1 [Compound 3b, 2-(Benzo[d]oxazol-2-Ylmethylamino)-4-methoxy-6-(4-methoxyphenyl)pyrimidine-5-carbonitrile]	4 ± 0.15	two-fold	3 ± 0.1	three	19 ± 0.52	22 ± 0.62	94.7 ± 2.5	–	–
74.3 ± 1.03	57.1 ± 0.92	37.6 ± 0.6	32.5 ± 0.53	21 ± 0.4	290 ± 10	> 300	–	COc1ccc(-c2nc(NCc3nc4ccccc4s3)nc(OC)c2C#N)cc1 [Compound 3c, 2-(Benzo[d]thiazol-2-ylmethylamino)-4-methoxy-6-(4-methoxyphenyl)pyrimidine-5-carbonitrile]	–	–	–	–	–	–	–	–	–
38.3 ± 0.63	31.6 ± 0.54	21.5 ± 0.49	70.3 ± 1.11	60.4 ± 0.98	340 ± 10	> 300	–	COc1ccc(-c2nc(NCc3cc4ccccc4s3)nc(OC)c2C#N)cc1 [Compound 3d, 2-(Benzo[b]thiophen-2-ylmethylamino)-4-methoxy-6-(4-methoxyphenyl)pyrimidine-5-carbonitrile]	–	–	–	–	–	–	–	–	–
40.1 ± 0.57	30.2 ± 0.49	23.6 ± 0.51	72.2 ± 1.31	61.3 ± 0.84	260 ± 10	241 to 243	–	COc1ccc(-c2nc(NS(=O)(=O)c3ccccc3)nc(OC)c2C#N)cc1 [Compound 5a, N-(5-Cyano-4-methoxy-6-(4-methoxyphenyl)pyrimidin-2-yl)benzenesulfonamide]	–	–	–	–	–	–	–	–	–
40.2 ± 0.58	36.2 ± 0.44	24.7 ± 0.31	75.2 ± 1.11	59.5 ± 1.04	180 ± 10	283 to 285	~9.3 fold	COc1ccc(-c2nc(NS(=O)(=O)c3ccc(C)cc3)nc(OC)c2C#N)cc1 [Compound 5b, N-(5-Cyano-4-methoxy-6-(4-methoxyphenyl)pyrimidin-2-yl)-4-methylbenzene-sulfonamide]	1 ± 0.05	7 fold	2 ± 0.05	4.5 fold	3 ± 0.07	12 ± 0.38	89.6 ± 2.75	4.3	2.1
42.1 ± 0.93	28.7 ± 0.51	20.3 ± 0.52	73.2 ± 1.21	64.3 ± 1.05	260 ± 10	276 to 278	–	COc1ccc(-c2nc(NS(=O)(=O)c3ccc(C(C)(C)C)cc3)nc(OC)c2C#N)cc1 [Compound 5c, 4-Tert-Butyl-N-(5-cyano-4-methoxy-6-(4-methoxyphenyl)pyrimidin-2-yl)benzene sulfonamide]	–	–	–	–	–	–	–	–	–
